Laboratory results from US20040235666A1, “Substituted imidates as pesticidal agents” (priority 2001, published 2004).

System: Meloidogyne incognita larvae
Assay: Meloidogyne test/aqueous system
Type: in vivo
Conditions: 40 ppm; nematicidal action by activity of the larvae; 96-well plate; 100% = no activity found
Method: Meloidogyne Test/Aqueous System To prepare a suitable preparation of active compound, 1 part by weight of active compound is mixed with 1 000 parts by weight of methanol, and per preparation to be tested, 10 μl are added to a well of a 96-well plate (from Greiner), where the solvent evaporates. In the 96-well plates, the wells containing the active compound are filled with lecithin solution (0.01%) and Meloidogyne incognita larvae suspension. The concentration of active compound is now 40 ppm. After the time indicated in the table, the nematicidal action is determined in % by the activity of the larvae. 100% means that no activity has been found; 0% means that the activity in the treated wells corresponds to that of the untreated control.
For `CC(c1ccc(Cl)cc1)N1CCSC1=NC#N` (stereo not drawn) [Example 14], the “Effect in % after 4 days” value was 100%.

System: not listed separately
Assay: log P determination by HPLC (EEC Directive 79/831 Annex V.A8, reversed-phase C18)
Type: physicochemical
Conditions: reversed-phase C18 HPLC column, C18, 43° C., 0.1% aqueous phosphoric acid/acetonitrile gradient
Method: The log P values given in Table 1 were determined in accordance with EEC Directive 79/831 Annex V.A8 by HPLC (High Performance Liquid Chromatography) using a reversed-phase column (C18). Temperature: 43° C. Mobile phase: 0.1% aqueous phosphoric acid, acetonitrile; linear gradient from 10% acetonitrile to 90% acetonitrile Calibration was carried out using unbranched alkan-2-ones (having 3 to 16 C atoms) with known log P values. (Determination of the log P values by the retention times using linear interpolation between two successive alkanones).
For `CCc1ccc(C(C)N2CCSC2=NC#N)cc1` (stereo not drawn) [Example 7], the chromatographic logP was 2.09.
Compound `Cc1ccc(C(C)N2CCSC2=NC#N)cc1` (stereo not drawn) [Example 12] has a chromatographic logP of 3.06.
In the case of `CC(c1ccc(Cl)c(Cl)c1)N1CCSC1=NC#N` (stereo not drawn) [Example 13], the chromatographic logP is reported as 2.84.
`CC(C)c1ccc(C(C)N2CCSC2=NC#N)cc1` (stereo not drawn) [Example 15] gave a chromatographic logP of 3.11.
`N#CN=C1SCCN1C(CF)c1ccc(Cl)cc1` (stereo not drawn) [Example 18] showed a chromatographic logP of 2.41.
Work on `CSc1ccc(Oc2cccc(CCN3CCSC3=NC#N)c2)cc1` [Example 21] yielded a chromatographic logP of 3.29.
With `CC(c1ccc(Cl)cc1)N1CCN(C)C1=NC#N` (stereo not drawn) [Example 23] the chromatographic logP was 2.29.
In the case of `CC(c1ccc(Cl)cc1)N1CCCN(C)C1=NC#N` (stereo not drawn) [Example 28], the chromatographic logP is reported as 2.23.
`N#CN=C1SCCN1C1Cc2ccc(Cl)cc2C1` (stereo not drawn) [Example 33] showed a chromatographic logP of 2.68.
With `CCC(c1ccc(Cl)cc1)N1CCS/C1=N\C#N` (stereo not drawn) [Example 39] the chromatographic logP was 2.81.
In the case of `CC(c1ccc(Cl)cc1)N1CC[S+]([O-])/C1=N\C#N` (stereo not drawn) [Example 40], the chromatographic logP is reported as 1.86.
Compound `CC(c1ccc(Cl)cc1)N1CCCN/C1=N\C(N)=S` (stereo not drawn) [Example 41] has a chromatographic logP of 1.48.
`CC(c1ccc(Cl)cc1)N1OCCN(C)/C1=N\C#N` (stereo not drawn) [Example 42] gave a chromatographic logP of 2.21.
With `CC(c1ccc(Cl)cc1)N1CCCN(C)/C1=N\C(N)=S` (stereo not drawn) [Example 43] the chromatographic logP was 1.48.
Work on `CSc1ccc(Oc2ccccc2CCN2CCS/C2=N\C#N)cc1` [Example 45] yielded a chromatographic logP of 3.33.
Work on `CC(=O)Oc1ccc(CCN2CCS/C2=N\C#N)cc1` [Example 46] yielded a chromatographic logP of 1.89.
Work on `CC(c1ccc(Cl)cc1Cl)N1CCCO/C1=N\C#N` (stereo not drawn) [Example 47] yielded a chromatographic logP of 2.43.
`CC(c1ccc(Cl)c(Cl)c1)N1CCCO/C1=N\C#N` (stereo not drawn) [Example 48] gave a chromatographic logP of 2.59.
With `CC1CN/C(=N\C#N)N(C(C)c2ccc(Cl)cc2)C1` (stereo not drawn) [Example 49] the chromatographic logP was 2.65.
For `CC1CN(C)/C(=N\C#N)N(C(C)c2ccc(Cl)cc2)C1` (stereo not drawn) [Example 50], the chromatographic logP was 2.52.
In the case of `CC(c1ccc(Cl)cc1)N1CSCC/C1=N\C#N` (stereo not drawn) [Example 51], the chromatographic logP is reported as 2.63.
In the case of `CC(c1ccc(Cl)cc1)N1COCC/C1=N\C#N` (stereo not drawn) [Example 52], the chromatographic logP is reported as 2.28.

System: Meloidogyne incognita egg/larvae
Assay: Meloidogyne test (sand, lettuce, gall formation)
Type: in vivo
Conditions: 20 ppm; nematicidal action by gall formation on lettuce roots; 100% = no galls
Method: To prepare a suitable preparation of active compound, 1 part by weight of active compound is mixed with 30 parts by weight of dimethylformamide and 1 part by weight of emulsifier (alllylaryl polyglycol ether), and the concentrate is diluted with water to the desired concentration.
Containers are filled with sand, solution of active compound, Meloidogyne incognita egg/larvae suspension and lettuce seeds. The lettuce seeds germinate and the plants develop. On the roots, galls are formed.
After the period of time indicated in the table, the nematicidal action is determined in % using gall formation as a measure. 100% means that no galls were found; 0% means that the number of galls on the treated plants corresponds to that of the untreated control.
In this test, for example, the following compounds of the Preparation Examples show good activity: […]
For `CC(c1ccc(Cl)cc1)N1CCNC1=NC#N` (stereo not drawn) [Example 1, 1-[1-(4-Chlorophenyl)ethyl]-2-imidazolidinylidenecyanamide], the “Effect in % after 4 days” value was 98%.
For `CC(c1ccccc1Cl)N1CCSC1=NC#N` (stereo not drawn) [Example 3], the “Effect in % after 4 days” value was 100%.
In the case of `CCC(c1ccccc1Cl)N1CCSC1=NC#N` (stereo not drawn) [Example 4], the “Effect in % after 4 days” value is reported as 100%.
For `CC(c1ccc(Cl)cc1)N1CCSC1=NC#N` (stereo not drawn) [Example 14], the “Effect in % after 4 days” value was 100%.
For `CC(c1ccc(Cl)cc1)N1CCCC1=NC#N` (stereo not drawn) [Example 22], the “Effect in % after 4 days” value was 100%.
With `CC(c1ccc(Cl)cc1)N1CCN(C)C1=NC#N` (stereo not drawn) [Example 23] the “Effect in % after 4 days” value was 90%.
With `CC(c1ccc(Cl)cc1)N1CCCN(C)C1=NC#N` (stereo not drawn) [Example 28] the “Effect in % after 4 days” value was 95%.
